Laboratory results reported in patent publication US6281342A, “Pradimicin compounds” (Bristol-Myers Squibb Company, priority 1994, dated 2001).
In brackets after ≈: the same amount, converted by molar mass. Where two headings read alike, the source gives them in different places.

Legend:
[1] = tested on: Saccharomyces cerevisiae ATCC 9763; assay: MIC, two-fold agar dilution, S. cerevisiae ATCC 9763; assay type: cell-based; details: ATCC9763, YMA pH 7.0, 28° C., 40 hours
Protocol: (§1) Minimum inhibitory concentrations (MICs) of nine 4'-N-substituted pradimicin derivatives were determined by two-fold agar dilution method on phosphate-buffered yeast morphology agar (YMA, pH 7.0, Difco Laboratories). A 5-μl of fungal cell suspension containing 2×10^6 cells/ml (2×10^7 cells/ml for Trichophyton mentagrophytes) were spotted on the surface of the agar plates containing test compound. MICs were recorded after 40-hour incubation at 28° C. except for T. mentagrophytes, which required 60-hour incubation to produce visually evaluable growth on the drug-free control plates and were defined as the lowest antibiotic concentrations showing no growth or less than five discrete colonies per spot.
(§2) Medium: yeast morphology agar + 1/15 M phosphate buffer (pH 7.0)
(§3) Incubation conditions: 28° C., 40 hours (C. albicans ATCC 38247 & T.
(§4) Medium: Yeast morphology agar + 1/15 phosphate buffer (pH 7.0).

[2] = tested on: Candida albicans IAM 4888; assay: MIC, two-fold agar dilution, C. albicans IAM 4888; assay type: cell-based; details: IAM4888, YMA pH 7.0, 28° C., 40 hours
Protocol: as §1, §2, §3, §4

[3] = tested on: Candida albicans A9540; assay: MIC, two-fold agar dilution, C. albicans A9540; assay type: cell-based
Protocol: as §1, §2, §3, §4

[4] = tested on: Candida albicans ATCC 38247; assay: MIC, two-fold agar dilution, C. albicans ATCC 38247; assay type: cell-based; details: ATCC38247, YMA pH 7.0, 28° C., 60 hours (table footnote)
Protocol: as §1, §2, §3
(§5) mentagrophytes #4329: 28° C., 60 hours).
as §4

[5] = tested on: Candida albicans ATCC 32354; assay: MIC, two-fold agar dilution, C. albicans ATCC 32354; assay type: cell-based; details: ATCC32354, YMA pH 7.0, 28° C., 40 hours
Protocol: as §1, §2, §3, §4

[6] = tested on: Candida albicans 83-2-14; assay: MIC, two-fold agar dilution, C. albicans 83-2-14; assay type: cell-based; details: 83214, YMA pH 7.0, 28° C., 40 hours
Protocol: as §1, §2, §3, §4

[7] = tested on: Candida tropicalis 85-8; assay: MIC, two-fold agar dilution, C. tropicalis 85-8; assay type: cell-based; details: 858, YMA pH 7.0, 28° C., 40 hours
Protocol: as §1, §2, §3, §4

[8] = tested on: Candida tropicalis IFO 10241; assay: MIC, two-fold agar dilution, C. tropicalis IFO 10241; assay type: cell-based; details: IFO10241, YMA pH 7.0, 28° C., 40 hours
Protocol: as §1, §2, §3, §4

[9] = tested on: Cryptococcus neoformans D49; assay: MIC, two-fold agar dilution, C. neoformans D49; assay type: cell-based; details: YMA pH 7.0, 28° C., 40 hours
Protocol: as §1, §2, §3, §4

[10] = tested on: Cryptococcus neoformans IAM 4514; assay: MIC, two-fold agar dilution, C. neoformans IAM 4514; assay type: cell-based; details: IAM4514
Protocol: as §1, §2, §3, §4

[11] = tested on: Aspergillus fumigatus IAM 2034; assay: MIC, two-fold agar dilution, A. fumigatus IAM 2034; assay type: cell-based; details: IAM2034
Protocol: as §1, §2, §3, §4

[12] = tested on: Trichophyton mentagrophytes #4329; assay: MIC, two-fold agar dilution, T. mentagrophytes #4329; assay type: cell-based
Protocol: as §1, §2, §3, §5, §4

[13] = tested on: Candida albicans A9540; assay: animal or person; assay type: in vivo, male ICR mice infected with Candida albicans A9540
Protocol: (§6) The in vivo therapeutic efficacies of seven 4'-N-substituted pradimicin derivatives, KHM-1, KHM-2, KHM-3, KHM-4, KHM-5, KHM-6 and KHM-7 were evaluated in the mouse infected with Candida albicans A9540 and Aspergillus fumigatusIAM 2034. Groups of five specific-pathogen-free male ICR mice weighing 20-25 g at each dose level were intravenously infected with approximately 10 times the 50% lethal dose of C. albicans A9540 (1×10^6 cells/mouse) or A. fumigatus IAM 2034 (1×10^7 cells/mouse). Immediately after the fungal infection, test compounds dissolved with 10% DMSO in distilled water were intravenously given to the mouse at the dosed volume of 0.1 ml/10 g of body weight. […] Untreated control animals died 7 to 13 days post-infection.

[14] = tested on: Aspergillus fumigatus IAM 2034; assay: Therapeutic efficacy in Aspergillus fumigatus systemic infection in mice; assay type: in vivo, male ICR mice infected with Aspergillus fumigatus IAM 2034; details: IAM2034, 480 h; for responders at 6.3 mg/kg: 6.3 mg/kg iv; for responders at 6.3 mg/kg / responders at 12.5 mg/kg / responders at 25 mg/kg / responders at 50 mg/kg: 20th day post-infection, read-out: S/T (No. of survivors/tested) (converted); for responders at 12.5 mg/kg: 12.5 mg/kg iv; for responders at 25 mg/kg: 25 mg/kg iv; for responders at 50 mg/kg: 50 mg/kg iv
Protocol: as §6

[15] = Water solubility at neutral pH in PBS containing Ca^2+/Mg^2+; assay type: physicochemical; details: pbs with ca2+/mg2+; Table 3; water-solubility at neutral pH in phosphate buffered saline containing Ca^2+/Mg^2+
Protocol: The compounds of the invention have good water solubility. Typically, the water solubility is greater than 10 mg/ml when measured at neutral pH in PBS containing Ca^2+ /Mg^2+, preferably greater than 20 mg/ml.
^2) Water-solubility at neutral pH in phosphate buffered saline
containing Ca^2+ /Mg^2+.

[16] = Candida albicans A9540, YMA pH 7.0, 28° C., 40 hours, read-out: MIC
[17] = Table 3, Candida albicans A9540, YMA, read-out: MIC Ca-4
[18] = Cryptococcus neoformans IAM 4514, YMA pH 7.0, 28° C., 40 hours, read-out: MIC
[19] = Table 3, Cryptococcus neoformans IAM 4514, YMA, read-out: MIC Cn-2
[20] = Aspergillus fumigatus IAM 2034, YMA pH 7.0, 28° C., 40 hours, read-out: MIC
[21] = Table 3, Aspergillus fumigatus IAM 2034, YMA, read-out: MIC Af-3
[22] = Table 3, Trichophyton mentagrophytes #4329, YMA, read-out: MIC TM-4
[23] = Trichophyton mentagrophytes #4329, YMA pH 7.0, 28° C., 60 hours, read-out: MIC
[24] = Candida albicans, A9540, 480 h, Table 2, C. albicans, mice, iv, 95% confidence limits in parentheses, read-out: PD50 (50% protection dose)
[25] = Candida albicans, A9540, in Mus musculus, iv, 480 h, read-out: S/T (No. of survivors/tested)
[26] = Aspergillus fumigatus, A. fumigatus, mice
[27] = Aspergillus fumigatus, Table 2, A. fumigatus, mice, iv, 95% confidence limits in parentheses, read-out: PD50 (50% protection dose)
[28] = Candida albicans, A9540, 480 h, C. albicans, mice, 6.3 mg/kg iv, 20th day post-infection, read-out: S/T (No. of survivors/tested) (converted)
[29] = Candida albicans, A9540, 480 h, C. albicans, mice, 12.5 mg/kg iv, 20th day post-infection, read-out: S/T (No. of survivors/tested) (converted)
[30] = Candida albicans, A9540, 480 h, C. albicans, mice, 25 mg/kg iv, 20th day post-infection, read-out: S/T (No. of survivors/tested) (converted)
[31] = Candida albicans, A9540, 480 h, C. albicans, mice, 50 mg/kg iv, 20th day post-infection, read-out: S/T (No. of survivors/tested) (converted)

SMILES	MIC [1] [µg/mL]	MIC [3, 16] [µg/mL]	MIC [3, 17] [µg/mL]	MIC [4] [µg/mL]	MIC [5] [µg/mL]	MIC [6] [µg/mL]	MIC [7] [µg/mL]	MIC [8] [µg/mL]	MIC [9] [µg/mL]	MIC [10, 18] [µg/mL]	MIC [10, 19] [µg/mL]	MIC [11, 20] [µg/mL]	MIC [11, 21] [µg/mL]	MIC [12, 22] [µg/mL]	MIC [12, 23] [µg/mL]	ED50 [13, 24] [mg/kg]	responders at 6.3 mg/kg [14, 26] [%]	responders at 12.5 mg/kg [14, 26] [%]	responders at 25 mg/kg [14, 26] [%]	solubility [15] [µg/mL]	further results
COc1cc(O)c2c(c1)C(=O)c1c(cc3c(c1O)-c1c(cc(C)c(C(=O)N[C@H](C)C(=O)O)c1O)[C@H](O[C@@H]1O[C@H](C)[C@H](N(C)N=O)[C@H](O[C@@H]4OC[C@@H](O)[C@H](O)[C@H]4O)[C@H]1O)[C@H]3O)C2=O [KHM-6, 4'-N-Nitrosopradimicin A]	3.1 (≈ 3.56 µM)	6.3 (≈ 7.24 µM)	6.3 (≈ 7.24 µM)	1.6 (≈ 1.84 µM)	3.1 (≈ 3.56 µM)	6.3 (≈ 7.24 µM)	12.5 (≈ 14.4 µM)	12.5 (≈ 14.4 µM)	1.6 (≈ 1.84 µM)	1.6 (≈ 1.84 µM)	1.6 (≈ 1.84 µM)	3.1 (≈ 3.56 µM)	3.1 (≈ 3.56 µM)	3.1 (≈ 3.56 µM)	3.1 (≈ 3.56 µM)	27	0	40	0	> 20000	MIC [2]: 6.3 µg/mL (≈ 7.24 µM); responders at 6.3 mg/kg [13, 25]: 0%; responders at 12.5 mg/kg [13, 25]: 20%; responders at 25 mg/kg [13, 25]: 20%; responders at 50 mg/kg [13, 25]: 80%; responders at 50 mg/kg [14, 26]: 40%; ED50 [14, 27]: > 50 mg/kg; ED50 ([14]; Table 3, Aspergillus fumigatus IAM 2034, iv, read-out: PD50 (mice) Af-3): > 50 mg/kg
CN[C@@H]1[C@H](O[C@@H]2OC[C@@H](O)[C@H](O)[C@H]2O)[C@@H](O)[C@H](O[C@H]2c3cc(C)c(C(=O)N[C@H](CO)C(=O)O)c(O)c3-c3c(cc4c(c3O)C(=O)c3cc(OC)cc(O)c3C4=O)[C@@H]2O)O[C@@H]1C [Pradimicin FA-1, reference compound]	1.6 (≈ 1.87 µM)	6.3 (≈ 7.35 µM)	6.3 (≈ 7.35 µM)	1.6 (≈ 1.87 µM)	3.1 (≈ 3.62 µM)	6.3 (≈ 7.35 µM)	6.3 (≈ 7.35 µM)	6.3 (≈ 7.35 µM)	1.6 (≈ 1.87 µM)	0.8 (≈ 0.934 µM)	0.8 (≈ 0.934 µM)	1.6 (≈ 1.87 µM)	1.6 (≈ 1.87 µM)	1.6 (≈ 1.87 µM)	1.6 (≈ 1.87 µM)	18	0	20	40	260 (≈ 303 µM)	responders at 6.3 mg/kg [13, 28]: 0%; responders at 12.5 mg/kg [13, 29]: 20%; responders at 25 mg/kg [13, 30]: 80%; responders at 50 mg/kg [13, 31]: 100%; responders at 50 mg/kg [14, 26]: 80%; ED50 [14, 27]: 27 mg/kg
COc1cc(O)c2c(c1)C(=O)c1c(cc3c(c1O)-c1c(cc(C)c(C(=O)N[C@H](CO)C(=O)O)c1O)[C@H](O[C@@H]1O[C@H](C)[C@H](N)[C@H](O[C@@H]4OC[C@@H](O)[C@H](O)[C@H]4O)[C@H]1O)[C@H]3O)C2=O [Pradimicin FA-2, reference compound]	1.6 (≈ 1.9 µM)	6.3 (≈ 7.48 µM)	6.3 (≈ 7.48 µM)	1.6 (≈ 1.9 µM)	3.1 (≈ 3.68 µM)	6.3 (≈ 7.48 µM)	6.3 (≈ 7.48 µM)	6.3 (≈ 7.48 µM)	1.6 (≈ 1.9 µM)	1.6 (≈ 1.9 µM)	1.6 (≈ 1.9 µM)	1.6 (≈ 1.9 µM)	1.6 (≈ 1.9 µM)	3.1 (≈ 3.68 µM)	3.1 (≈ 3.68 µM)	7.7	–	–	–	20 (≈ 23.7 µM)	ED50 ([13]; 480 h, Table 3, Candida albicans A9540, iv, read-out: PD50 (mice) Ca-4): 7.4 mg/kg; responders at 6.3 mg/kg [13, 28]: 40%; responders at 12.5 mg/kg [13, 29]: 80%; responders at 25 mg/kg [13, 30]: 100%; responders at 50 mg/kg [13, 31]: 100%
